Assay results reported in US20080214680A1, “Application of arsenic as a cancer prevention agent” (priority 2003, published 2008).

What was measured:
[1] = test system: acute prontyelocytic leukemia cells; settings: acute treatment of cells; cited from earlier work
[2] = test system: acute prontyelocytic leukemia cells; test: Chen et al.: acute treatment of leukemia cells with arsenic trioxide; type: cell-based; settings: equivalent of 0.1 μmoles per liter
Description: Bae cites a paper by Chen et at. (May 1, 1997) in his references, published more than a year before his patent filing, which recites the use of arsenic trioxide (As2O3) as an acute treatment on acute prontyelocytic leukemia cells. The treatment is effective over an exposure range of 0.5-2.0 μmoles per liter, but ineffective at 0.1 μmoles per liter. These values are equivalent to […] and 0.02 μg/ml, respectively. Chen requires just 9-36 percent of Bae's arsenic hexoxide dose to produce an acute effect on cells with arsenic trioxide. (Two percent of Bae's dose [0.1 μmoles per liter] is an […] cellular dose for arsenic trioxide.) For treating humans, Bae's prolonged daily exposure to arsenic hexoxide is 1818-times greater than […] effective cellular dose and 40,000-times greater than 50 ppb. Chen reports no human exposure data, but if he treated cancers in humans with an 1818-times greater daily dose of arsenic trioxide, that exposure would be 3600-14,400-times greater than this invention's 50 ppb or μg/L. Chen's ineffective dose would be 720-times greater than 50 μg/L.

**Q.** For arsenic trioxide, which effective exposure range [1] is on record?
**A.** 0.5-2.0 μmoles per liter

**Q.** And the ineffective exposure [1]?
**A.** 0.1 μmoles per liter

**Q.** And the “ineffective exposure, mass equivalent” value [2]?
**A.** 0.02 µg/mL
